From US12109207B2, “Methods of using 4(1H)-quinolone derivatives” (Academia Sinica, priority 2019, dated 2024)

System: KBtax
Assay: Cell cytotoxicity assay (MTS), KBtax
Type: cell-based, human
Procedure: Cells were seeded into the wells of 96-well plates (2000 cells/well). After an overnight culture, the cells were treated with different concentrations of a compound for 72 h. The CellTiter 96 AQueous one-solution cell proliferation assay (MTS) reagent was used to determine cytotoxicity. After treatment with a compound, 20 μL of the MTS reagent was added to each well and the plates were incubated at 37° C. for 1-4 h. Next, the absorbance at 490 nm of the culture medium in each well was determined using a VersaMax microplate reader (Molecular Devices).

CCOC(=O)c1ccc2[nH]c(-c3ccccc3)cc(=O)c2c1 [AS1712, Ethyl 4-oxo-2-phenyl-1,4-dihydroquinoline-6-carboxylate]
IC50 (Homo sapiens, KBtax, P-gp overexpressing, paclitaxel-selected KB subline): 0.03 ± 0.00065 µM | RF, resistance factor (IC50 in resistant cell line/IC50 in parent cell line) (KBtax vs KB): 0.81
